# Structures can show the parent of a compound that is named as a salt. Where two headings read alike, the source gives them in different places.
# Tests used:
# [1] = Protocol: Approximately four (4) grams of rasagiline base was introduced into the sublimation reservoir of a standard Sigma-Aldrich glass sublimation apparatus, (Cat. No. Z221171-1EA) with internal diameter of 3 cm. The apparatus was equipped with vacuum pump, vacuumeter and circulating ice-water bath for cooling of the apparatus' sublimation head. The apparatus was then closed and circulation of coolant at 0 to 1° C. was started. The vacuum was then built to a pressure (“P”) of 2-3 mbar and the reservoir was introduced into thermostatic water bath maintained at temperature (“T”) of 21° C.
# The process was controlled by visual observation of the sublimed solid forming on the sublimation head. After sublimation completed the operation time was recorded, the apparatus was opened and the sublimed solid was removed from the head and weighed.
# The mean sublimation rate was calculated as follows:
# Mean Sublimation Rate Rs1: Rs1=m/M·t [gg^−1hr^−1]
# Mean Sublimation Rate Rs2: Rs2=m/S·t [gm^−2hr^−1]
# Mean Relative Sublimation Rate R: R=m·100/M·t [%/hr] m—mass of sublimed material, g M—mass of starting material, g t=sublimation time, hrs S=sublimation area (apparatus section area), m^2
# [2] = Stability test for dried Rasagiline Tartrate Pure; format: physicochemical; details: for Chromatographic purity by HPLC: 1-Aminoindan / Chromatographic purity by HPLC: Any other / Description / ID by HPLC / L.O.D. / S-isomer by HPLC: RT, polyethylene bag
# [3] = Stability test for wet Rasagiline Tartrate Pure; format: physicochemical; details: for L.O.D.: samples dried prior to analysis; for Description: wet with isopropanol and water; for Description / Chromatographic purity by HPLC: 1-Aminoindan / Chromatographic purity by HPLC: Any other / ID by HPLC / S-isomer by HPLC: RT, polyethylene bag; for Chromatographic purity by HPLC: 1-Aminoindan / Chromatographic purity by HPLC: Any other / ID by HPLC / S-isomer by HPLC: wet
# Description: Rasagiline Tartrate Pure wet with isopropanol and water was stored at ambient temperature (RT) in polyethylene bag. The solid was sampled, dried to constant weight and analyzed.
# [4] = 48 hrs in air; 7-8° C. or ambient temperature
# [5] = alcohols, acetone, ethyl acetate, toluene, diethyl ether, dioxane, hexane and n-heptane
# [6] = for Description: wet with water, RT, protected from light
# Protocol: Rasagiline Base wet with water produced in Example […] was stored at ambient temperature (RT) in polyethylene bag inside aluminium laminate bag protected from light. The solid was sampled, dried to constant weight under vacuum and analyzed. The sampling and analysis were performed at time zero, than after 2 weeks and 4 weeks from zero time.
# [7] = low levels of volatiles by KF and TGA
# physchem = details: 25 °C
# [8] = Ex. 21, oil, 20 mbar, 22 °C, 8.0 hr
# [9] = Ex. 22, oil, 20 mbar, 35 °C, 5.33 hr
# [10] = Ex. 23, oil, 2-3 mbar, 22 °C, 3.0 hr
# [11] = Ex. 24, oil, 2-3 mbar, 60 °C, 1.3 hr
# [12] = Ex. 12, solid, 2-3 mbar, 21 °C, 8.0 hr
# [13] = Ex. 13, solid, 2-3 mbar, 35 °C, 5.33 hr
# [14] = Ex. 14, melt, 2-3 mbar, 60 °C, 4.0 hr
# [15] = Ex. 15, solid, 20 mbar, 21 °C, 8.5 hr
# [16] = Ex. 16, solid, 40 mbar, 21 °C, 8.5 hr
# [17] = Ex. 17, solid, 40 mbar, 35 °C, 5.33 hr
# [18] = Ex. 18, solid, 20 mbar, 35 °C, 5.33 hr
# [19] = Ex. 19, melt, 40 mbar, 60 °C, 5.33 hr
# [20] = Ex. 20, melt, 20 mbar, 60 °C, 5.33 hr
compound,measurement,setting,value
"C#CCNC1CCc2ccccc21 (racemic) [Rac.PAI oil, N-propargyl-1-aminoindan, reference compound]",Mean relative sublimation rate R,[1]; [8],0.0 %/hr
same,Mean sublimation rate Rs1,[1]; [8],0.0 g/g/h
same,Mean sublimation rate Rs2,[1]; [8],0.0 g/hr/m^2
same,Sublimed solid fraction,[1]; [8],0.0%
same,Mean relative sublimation rate R,[1]; [9],0.0 %/hr
same,Mean sublimation rate Rs1,[1]; [9],0.0 g/g/h
same,Mean sublimation rate Rs2,[1]; [9],0.0 g/hr/m^2
same,Sublimed solid fraction,[1]; [9],0.0%
same,Mean relative sublimation rate R,[1]; [10],0.08 %/hr
same,Mean sublimation rate Rs2,[1]; [10],3.537 g/hr/m^2
same,Sublimed solid fraction,[1]; [10],0.25%
same,−log Rs1,[1]; [10],3.08
same,Mean sublimation rate Rs1,"[1]; Ex. 23, oil, 2-3 mbar, 22 °C, 3.0 hr, listed as racemic PAI",0.000833 g/g/h
same,Mean relative sublimation rate R,[1]; [11],2.5 %/hr
same,Mean sublimation rate Rs2,[1]; [11],101.16 g/hr/m^2
same,Sublimed solid fraction,[1]; [11],3.25%
same,−log Rs1,[1]; [11],1.60
same,Mean sublimation rate Rs1,"[1]; Ex. 24, oil, 2-3 mbar, 60 °C, 1.3 hr, listed as racemic PAI",0.025 g/g/h
C#CCN[C@@H]1CCc2ccccc21.C#CCN[C@@H]1CCc2ccccc21.O=C(O)C(O)C(O)C(=O)O [Dry GA-18062],Chromatographic purity by HPLC: 1-Aminoindan,[2]; 2 weeks,L.T. 0.03%
same,Chromatographic purity by HPLC: Any other,[2]; 2 weeks,L.T. 0.03%
same,Description,[2]; 2 weeks,White
same,ID by HPLC,[2]; 2 weeks,Conforms
same,L.O.D.,[2]; 2 weeks,0.16%
same,S-isomer by HPLC,[2]; 2 weeks,L.T. 0.3%
same,Chromatographic purity by HPLC: 1-Aminoindan,[2]; 4 weeks,L.T. 0.03%
same,Chromatographic purity by HPLC: Any other,[2]; 4 weeks,L.T. 0.03%
same,Description,[2]; 4 weeks,White
same,ID by HPLC,[2]; 4 weeks,Conforms
same,L.O.D.,[2]; 4 weeks,0.03%
same,S-isomer by HPLC,[2]; 4 weeks,L.T. 0.3%
same,Chromatographic purity by HPLC: 1-Aminoindan,[2]; Start (t = 0),L.T. 0.03%
same,Chromatographic purity by HPLC: Any other,[2]; Start (t = 0),L.T. 0.03%
same,Description,[2]; Start (t = 0),White
same,ID by HPLC,[2]; Start (t = 0),Conforms
same,L.O.D.,[2]; Start (t = 0),0.03%
same,S-isomer by HPLC,[2]; Start (t = 0),L.T. 0.3%
same,Time limitation,[2]; Storage temperature R.T.,One month
C#CCN[C@@H]1CCc2ccccc21.C#CCN[C@@H]1CCc2ccccc21.O=C(O)C(O)C(O)C(=O)O [Wet RB-2087],Time limitation,[3]; Storage temperature R.T.,One month
same,L.O.D.,[3]; 2 weeks,0.05%
same,L.O.D.,[3]; 4 weeks,0.04%
same,L.O.D.,[3]; Start (t = 0),0.01%
same,Description,[3]; 2 weeks,White
same,Description,[3]; 4 weeks,White
same,Description,[3]; Start (t = 0),White
same,Chromatographic purity by HPLC: 1-Aminoindan,[3]; 2 weeks,L.T. 0.03%
same,Chromatographic purity by HPLC: Any other,[3]; 2 weeks,L.T. 0.03%
same,ID by HPLC,[3]; 2 weeks,Conforms
same,S-isomer by HPLC,[3]; 2 weeks,L.T. 0.3%
same,Chromatographic purity by HPLC: 1-Aminoindan,[3]; 4 weeks,L.T. 0.03%
same,Chromatographic purity by HPLC: Any other,[3]; 4 weeks,L.T. 0.03%
same,ID by HPLC,[3]; 4 weeks,Conforms
same,S-isomer by HPLC,[3]; 4 weeks,L.T. 0.3%
same,Chromatographic purity by HPLC: 1-Aminoindan,[3]; Start (t = 0),L.T. 0.03%
same,Chromatographic purity by HPLC: Any other,[3]; Start (t = 0),L.T. 0.03%
same,ID by HPLC,[3]; Start (t = 0),Conforms
same,S-isomer by HPLC,[3]; Start (t = 0),L.T. 0.3%
"C#CCN[C@@H]1CCc2ccccc21 [rasagiline base, R(+)-N-propargyl-1-aminoindan]",effect of holding as ethanol solution on yield and quality of solid product,[4],do not affect the yield and quality of solid product
same,Mean relative sublimation rate R,[1]; [12],0.0312 %/hr
same,Mean sublimation rate Rs1,[1]; [12],3.12e-05 g/g/h
same,Mean sublimation rate Rs2,[1]; [12],1.333 g/hr/m^2
same,Sublimed solid fraction,[1]; [12],0.25%
same,−log Rs1,[1]; [12],4.5
same,Mean relative sublimation rate R,[1]; [13],0.116 %/hr
same,Mean sublimation rate Rs1,[1]; [13],0.00117 g/g/h
same,Mean sublimation rate Rs2,[1]; [13],4.978 g/hr/m^2
same,Sublimed solid fraction,[1]; [13],0.62%
same,−log Rs1,[1]; [13],2.93
same,Mean relative sublimation rate R,[1]; [14],5.6 %/hr
same,Mean sublimation rate Rs1,[1]; [14],0.0562 g/g/h
same,Mean sublimation rate Rs2,[1]; [14],236.19 g/hr/m^2
same,Sublimed solid fraction,[1]; [14],22.4%
same,−log Rs1,[1]; [14],1.25
same,Mean relative sublimation rate R,[1]; [15],0.0 %/hr
same,Mean sublimation rate Rs1,[1]; [15],0.0 g/g/h
same,Mean sublimation rate Rs2,[1]; [15],0.0 g/hr/m^2
same,Sublimed solid fraction,[1]; [15],0.0%
same,Mean relative sublimation rate R,[1]; [16],0.0 %/hr
same,Mean sublimation rate Rs1,[1]; [16],0.0 g/g/h
same,Mean sublimation rate Rs2,[1]; [16],0.0 g/hr/m^2
same,Sublimed solid fraction,[1]; [16],0.0%
same,Mean relative sublimation rate R,[1]; [17],0.0375 %/hr
same,Mean sublimation rate Rs1,[1]; [17],0.000375 g/g/h
same,Mean sublimation rate Rs2,[1]; [17],1.593 g/hr/m^2
same,Sublimed solid fraction,[1]; [17],0.20%
same,−log Rs1,[1]; [17],3.42
same,Mean relative sublimation rate R,[1]; [18],0.0506 %/hr
same,Mean sublimation rate Rs1,[1]; [18],0.000515 g/g/h
same,Mean sublimation rate Rs2,[1]; [18],2.192 g/hr/m^2
same,Sublimed solid fraction,[1]; [18],0.27%
same,−log Rs1,[1]; [18],3.29
same,Mean relative sublimation rate R,[1]; [19],0.116 %/hr
same,Mean sublimation rate Rs1,[1]; [19],0.00117 g/g/h
same,Mean sublimation rate Rs2,[1]; [19],4.978 g/hr/m^2
same,Sublimed solid fraction,[1]; [19],0.62%
same,−log Rs1,[1]; [19],2.93
same,Mean relative sublimation rate R,[1]; [20],0.769 %/hr
same,Mean sublimation rate Rs1,[1]; [20],0.00764 g/g/h
same,Mean sublimation rate Rs2,[1]; [20],32.26 g/hr/m^2
same,Sublimed solid fraction,[1]; [20],4.1%
same,−log Rs1,[1]; [20],2.12
same,solubility in organic solvents,[5],freely soluble
same,Assay by HPLC,[6]; 2 weeks,100.5 % on dry basis
same,Enantiomeric purity by HPLC (S-isomer),[6]; 2 weeks,L.T. 0.1%
same,ID by HPLC,[6]; 2 weeks,Conforms
same,IDD by HPLC: 1-Aminoindan,[6]; 2 weeks,L.T. 0.02%
same,IDD by HPLC: 1-Indanone,[6]; 2 weeks,L.T. 0.02%
same,IDD by HPLC: 3-PAIO,[6]; 2 weeks,L.T. 0.02%
same,IDD by HPLC: Any other,[6]; 2 weeks,L.T. 0.02%
same,IDD by HPLC: Total,[6]; 2 weeks,L.T. 0.02%
same,Water content by CKF,[6]; 2 weeks,0.04%
same,Assay by HPLC,[6]; 4 weeks,100.7 % on dry basis
same,Enantiomeric purity by HPLC (S-isomer),[6]; 4 weeks,L.T. 0.1%
same,ID by HPLC,[6]; 4 weeks,Conforms
same,IDD by HPLC: 1-Aminoindan,[6]; 4 weeks,L.T. 0.02%
same,IDD by HPLC: 1-Indanone,[6]; 4 weeks,L.T. 0.02%
same,IDD by HPLC: 3-PAIO,[6]; 4 weeks,L.T. 0.02%
same,IDD by HPLC: Any other,[6]; 4 weeks,L.T. 0.02%
same,IDD by HPLC: Total,[6]; 4 weeks,L.T. 0.02%
same,Water content by CKF,[6]; 4 weeks,0.03%
same,Assay by HPLC,[6]; Start (t = 0),100.1 % on dry basis
same,Enantiomeric purity by HPLC (S-isomer),[6]; Start (t = 0),L.T. 0.1%
same,ID by HPLC,[6]; Start (t = 0),Conforms
same,IDD by HPLC: 1-Aminoindan,[6]; Start (t = 0),L.T. 0.02%
same,IDD by HPLC: 1-Indanone,[6]; Start (t = 0),L.T. 0.02%
same,IDD by HPLC: 3-PAIO,[6]; Start (t = 0),L.T. 0.02%
same,IDD by HPLC: Any other,[6]; Start (t = 0),L.T. 0.02%
same,IDD by HPLC: Total,[6]; Start (t = 0),L.T. 0.02%
same,Water content by CKF,[6]; Start (t = 0),0.04%
same,Time limitation,[6]; Storage temperature +2-+8° C.,One month
same,Description,[6]; 2 weeks,White solid
same,Description,[6]; 4 weeks,White solid
same,Description,[6]; Start (t = 0),White solid
same,hygroscopicity,[7],not hygroscopic
same,solubility,"physchem; pH 11, water",5.5 mg/mL
C#CCN[C@@H]1CCc2ccccc21 [rasagiline mesylate],solubility,"physchem; pH 3.3, water",570 mg/mL
same,solubility,"physchem; pH 6.7, water",92 mg/mL
